Laboratory results: PMC8894567 (The Journal of Antibiotics, 2022)

Tests used:
[1] = tested on: influenza virus A H7N1; details: cited from earlier work
[2] = tested on: influenza virus A/Puerto Rico/8/34 (H1N1); format: cell-based
[3] = tested on: influenza type A virus; details: cited from earlier work
[4] = tested on: influenza type B; details: cited from earlier work
[5] = tested on: herpes virus; details: read-out: EC50 antiherpetic; cited from earlier work
[6] = tested on: HIV; details: read-out: EC50 anti-HIV activity; cited from earlier work
[7] = tested on: Flu A H1N1 strain; details: cited from earlier work

Row | Molecule | protection index [3] [%] | protection index [4] [%] | also measured
1 | 3-oxime of betulonic acid and L-leucine-28-amide | – | – | EC50 [1]: 2.17 µM; suppression of influenza virus A H7N1 [1]: 90%
2 | CC(N)C12CC3CC(CC(C3)C1)C2 (stereo not drawn) [Rimantadine] | – | – | SI, selectivity index CC50/IC50 [2]: 5
3 | COC(=O)[C@]12CC[C@@H](C)[C@H](C)[C@H]1C1=CC[C@@H]3[C@@]4(C)CC[C@H](O)C(C)(C)[C@@H]4CC[C@@]3(C)[C@]1(C)CC2 [methyl ester of ursolic acid] | 60 | 80 | –
4 | Alnincanone | 60 | 80 | –
5 | Ethyl β-alaninate diamide 2,3 seco-lupane | – | – | EC50 [5]: 4.1 µM; EC50 [6]: 5.1 µM
6 | echinocystic acid | 60 | 80 | –
7 | lupane 3,4-seco-3,28-bis-N,N-methylpiperazine-amide | – | – | IC50 [7]: 27 µM
